A short description of data set [1]: Compound cytotoxicity, XTT-based colorimetric assay. Particulars: human, uninfected MT2 cells, Table 1a, day 4, XTT. The class given is cell-based. The procedure: Compound cytotoxicity and the corresponding CC50 values were determined using the same protocol as described in the antiviral assay except that uninfected cells were used. Cytotoxicity was assessed on day 4 in uninfected MT2 cells by using a XTT (2,3-bis[2-Methoxy-4-nitro-5-sulfophenyl]-2H-tetrazolium-5-carboxyanilide inner salt)-based colorimetric assay (Sigma-Aldrich, St Louis, Mo.). Biological data for select compounds of the invention are contained in Table 1 and Table 1a

The subject of data set [2] is recombinant NL4-3 virus (nef section replaced with Renilla luciferase gene) in MT-2 cells. As to the kind of experiment: HIV cell culture assay (antiviral activity, luciferase readout). The class given is cell-based. The conditions noted are these: MT-2 cells infected for 4-5 days with recombinant NL4-3 luciferase virus. The procedure:
HIV cell culture assay—MT-2 cells, 293T cells and the proviral DNA clone of NL4-3 virus were obtained from the NIH AIDS Research and Reference Reagent Program. MT-2 cells were propagated in RPMI 1640 media supplemented with 10% heat inactivated fetal bovine serum (FBS), 100 μg/ml penicillin G and up to 100 units/mL streptomycin. The 293T cells were propagated in DMEM media supplemented with 10% heat inactivated FBS, 100 μg/mL penicillin G and 100 μg/mL streptomycin. A recombinant NL4-3 proviral clone, in which a section of the nef gene was replaced with the Renilla luciferase gene, was used to make the reference virus used in these studies. The recombinant virus was prepared through transfection of the recombinant NL4-3 proviral clone into 293T cells using Transit-293 Transfection Reagent from Mirus Bio LLC (Madison, Wis.). Supernatent was harvested after 2-3 days and the amount of virus present was titered in MT-2 cells using luciferase enzyme activity as a marker by measuring luciferase enzyme activity. Luciferase was quantitated using the EnduRen Live Cell Substrate from Promega (Madison, Wis.). Antiviral activities of compounds toward the recombinant virus were quantified by measuring luciferase activity in MT-2 cells infected for 4-5 days with the recombinant virus in the presence of serial dilutions of the compound.
The 50% effective concentration (ECs) was calculated by using the exponential form of the median effect equation where (Fa)=1/[1+(ED50/drug conc.)^m] (Johnson Va., Byington RT. Infectivity Assay. In Techniques in HIV Research. ed. Aldovini A, Walker BD. 71-76. New York: Stockton Press. 1990).

For `COc1ccc2c(=O)n(-c3ccc(Cl)c4c(NS(C)(=O)=O)nn(CC(F)F)c34)c([C@H](Cc3cc(F)cc(F)c3)NC(=O)Cn3nc(C(F)F)c4c3C(F)(F)[C@@H]3C[C@H]43)nc2n1` (mixture of isomers) [Example 54.2, N-[(1S)-1-{3-[4-chloro-1-(2,2-difluoroethyl)-3-methanesulfonamido-1H-indazol-7-yl]-7-methoxy-4-oxo-3H,4H-pyrido[2,3-d]pyrimidin-2-yl}-2-(3,5-difluorophenyl)ethyl]-2-[(2S,4R)-9-(difluoromethyl)-5,5-difluoro-7,8-diazatricyclo[4.3.0.0^2,4]nona-1(6),8-dien-7-yl]acetamide], the CC50 (as a rule, the concentration at which the toxic effect on the cells reaches its halfway point) at 4 days in data set [1] was greater than 1000 nM. Further, the EC50 (commonly the concentration needed to bring the measured effect to its halfway point) in data set [2] (Renilla, NL43, Table 1a) came to 0.026 nM.
Consider `COc1ccc2c(=O)n(-c3ccc(Cl)c4c(NS(=O)(=O)C5CC5)nn(CC(F)F)c34)c([C@H](Cc3cc(F)cc(F)c3)NC(=O)Cn3nc(C(F)F)c4c3C(F)(F)[C@@H]3C[C@H]43)nc2n1` (mixture of isomers) [Example 56.2, N-[(1S)-1-{3-[4-chloro-3-cyclopropanesulfonamido-1-(2,2-difluoroethyl)-1H-indazol-7-yl]-7-methoxy-4-oxo-3H,4H-pyrido[2,3-d]pyrimidin-2-yl}-2-(3,5-difluorophenyl)ethyl]-2-[(2S,4R)-9-(difluoromethyl)-5,85-difluoro-7,8-diazatricyclo[4.3.0.0^2,4]nona-1(6),8-dien-7-yl]acetamide], for which, in data set [1], the CC50 at 4 days was greater than 1000 nM. In data set [2] (Renilla, NL43, Table 1a), the EC50 turned out to be 0.022 nM.
Compound `COc1ccc2c(=O)n(-c3ccc(Cl)c4c(NS(C)(=O)=O)nn(C)c34)c([C@H](Cc3cc(F)cc(F)c3)NC(=O)Cn3ccc(C4CC4)n3)nc2n1` (mixture of isomers) [Example 58.1, N-[(1S)-1-[3-(4-chloro-3-methanesulfonamido-1-methyl-1H-indazol-7-yl)-7-methoxy-4-oxo-3H,4H-pyrido[2,3-d]pyrimidin-2-yl]-2-(3,5-difluorophenyl)ethyl]-2-(3-cyclopropyl-1H-pyrazol-1-yl)acetamide] registered a CC50 at 4 days in data set [1] greater than 1000 nM. For the same compound, in data set [2] (Table 1a), the EC50 was found to be 2.26 nM.
In data set [1], `CCOc1ccc2c(=O)n(-c3ccc(Cl)c4c(NS(C)(=O)=O)nn(C)c34)c(C(Cc3cc(F)cc(F)c3)NC(=O)Cn3nc(C(F)F)c4c3C(F)(F)[C@@H]3C[C@H]43)nc2n1` (mixture of isomers) [Example 60.1] showed a CC50 at 4 days greater than 1000 nM. In addition, the EC50 in data set [2] (Renilla, NL43, Table 1a) was 0.397 nM.
`CCOc1ccc2c(=O)n(-c3ccc(Cl)c4c(NS(C)(=O)=O)nn(C)c34)c([C@H](Cc3cc(F)cc(F)c3)NC(=O)Cn3nc(C(F)F)c4c3C(F)(F)[C@@H]3C[C@H]43)nc2n1` (mixture of isomers) [Example 60.2, N-[(1S)-1-[3-(4-chloro-3-methanesulfonamido-1-methyl-1H-indazol-7-yl)-7-ethoxy-4-oxo-3H,4H-pyrido[2,3-d]pyrimidin-2-yl]-2-(3,5-difluorophenyl)ethyl]-2-[(2S,4R)-9-(difluoromethyl)-5,5-difluoro-7,8-diazatricyclo[4.3.0.0^2,4]nona-1(6),8-dien-7-yl]acetamide] showed a cytotoxic concentration (CC50) at 4 days in data set [1] greater than 1000 nM. Also, in data set [2] (Renilla, NL43, Table 1a), the EC50 was 0.0174 nM.
Taken in the same sequence, the figures for `Cc1ccc(C)c2c(=O)n(-c3ccc(Cl)c4c(NS(C)(=O)=O)nn(C)c34)c(C(Cc3cc(F)cc(F)c3)NC(=O)Cn3nc(C(F)F)c4c3C(F)(F)[C@@H]3C[C@H]43)nc12` (mixture of isomers) [Example 67] were greater than 1000 nM and 183 nM.
`COc1c(F)cc2c(=O)n(-c3ccc(Cl)c4c(NS(C)(=O)=O)nn(C)c34)c([C@H](Cc3cc(F)cc(F)c3)NC(=O)Cn3nc(C(F)F)c4c3C(F)(F)[C@@H]3C[C@H]43)nc2c1F` (mixture of isomers) [Example 114]: the CC50 at 4 days in data set [1] was greater than 1000 nM. Also, the EC50 in data set [2] (Renilla, NL43, Table 1a) was found to be 0.071 nM.
The like results for `Cn1nc(NS(C)(=O)=O)c2c(Cl)ccc(-n3c([C@H](Cc4cc(F)cc(F)c4)NC(=O)Cn4nc(C(F)F)c5c4C(F)(F)[C@@H]4C[C@H]54)nc4ccc(F)c(Cl)c4c3=O)c21` (mixture of isomers) [Example 159, N—((S)-1-(5-chloro-3-(4-chloro-1-methyl-3-(methylsulfonamido)-1H-indazol-7-yl)-6-fluoro-4-oxo-3,4-dihydroquinazolin-2-yl)-2-(3,5-difluorophenyl)ethyl)-2-((3bS,4aR)-3-(difluoromethyl)-5,5-difluoro-3b,4,4a,5-tetrahydro-1H-cyclopropa[3,4]cyclopenta[1,2-c]pyrazol-1-yl)acetamide] were, in that order, greater than 1000 nM and 9.49 nM.
The like results for `Cn1nc(NS(C)(=O)=O)c2c(Cl)ccc(-n3c([C@H](Cc4cc(F)cc(F)c4)NC(=O)Cn4nc(C(F)F)c5c4C(F)(F)[C@@H]4C[C@H]54)nc4cc(C#N)ccc4c3=O)c21` (mixture of isomers) [Example 166, N—((S)-1-(3-(4-chloro-1-methyl-3-(methylsulfonamido)-1H-indazol-7-yl)-7-cyano-4-oxo-3,4-dihydroquinazolin-2-yl)-2-(3,5-difluorophenyl)ethyl)-2-((3bS,4aR)-3-(difluoromethyl)-5,5-difluoro-3b,4,4a,5-tetrahydro-1H-cyclopropa[3,4]cyclopenta[1,2-c]pyrazol-1-yl)acetamide] were, in that order, greater than 1000 nM and 26 nM.
On to `Cn1nc(NS(C)(=O)=O)c2c(Cl)ccc(-n3c([C@H](Cc4cc(F)cc(F)c4)NC(=O)Cn4nc(C(F)F)c5c4C(F)(F)[C@@H]4C[C@H]54)nc4cc(Cl)ccc4c3=O)c21` (mixture of isomers) [Example 167, N—((S)-1-(7-chloro-3-(4-chloro-1-methyl-3-(methylsulfonamido)-1H-indazol-7-yl)-4-oxo-3,4-dihydroquinazolin-2-yl)-2-(3,5-difluorophenyl)ethyl)-2-((3bS,4aR)-3-(difluoromethyl)-5,5-difluoro-3b,4,4a,5-tetrahydro-1H-cyclopropa[3,4]cyclopenta[1,2-c]pyrazol-1-yl)acetamide], for which the cytotoxic concentration (CC50) at 4 days in data set [1] was greater than 1000 nM. Also, the EC50 in data set [2] (Table 1a) came out at 80.5 nM.
On to `COc1cccc2nc([C@H](Cc3cc(F)cc(F)c3)NC(=O)Cn3nc(C(F)F)c4c3C(F)(F)[C@@H]3C[C@H]43)n(-c3ccc(Cl)c4c(NS(C)(=O)=O)nn(C)c34)c(=O)c12` (mixture of isomers) [Example 169, N—((S)-1-(3-(4-chloro-1-methyl-3-(methylsulfonamido)-1H-indazol-7-yl)-5-methoxy-4-oxo-3,4-dihydroquinazolin-2-yl)-2-(3,5-difluorophenyl)ethyl)-2-((3bS,4aR)-3-(difluoromethyl)-5,5-difluoro-3b,4,4a,5-tetrahydro-1H-cyclopropa[3,4]cyclopenta[1,2-c]pyrazol-1-yl)acetamide], for which the CC50 at 4 days in data set [1] is greater than 1000 nM. The EC50 in data set [2] (Table 1a) was 119 nM.
As for `Cn1nc(NS(C)(=O)=O)c2c(Cl)ccc(-n3c([C@H](Cc4cc(F)cc(F)c4)NC(=O)Cn4nc(C(F)F)c5c4C(F)(F)[C@@H]4C[C@H]54)nc4ccc(Cl)c(F)c4c3=O)c21` (mixture of isomers) [Example 175, N—((S)-1-(6-chloro-3-(4-chloro-1-methyl-3-(methylsulfonamido)-1H-indazol-7-yl)-5-fluoro-4-oxo-3,4-dihydroquinazolin-2-yl)-2-(3,5-difluorophenyl)ethyl)-2-((3bS,4aR)-3-(difluoromethyl)-5,5-difluoro-3b,4,4a,5-tetrahydro-1H-cyclopropa[3,4]cyclopenta[1,2-c]pyrazol-1-yl)acetamide], the half-maximal cytotoxic concentration (CC50) at 4 days in data set [1] is greater than 1000 nM. Besides, the EC50 in data set [2] (Renilla, NL43, Table 1a) amounted to 10.9 nM.
